Converted amounts (≈) assume the structure as drawn.
Key:
[1] = tested on: E. coli (amikacin MIC 32 mg/L) CAN-ICU 63074; settings: E. coli CAN-ICU 63074; Zhanel et al., 2008; cited from earlier work
[2] = tested on: P. aeruginosa (gentamicin-resistant) CAN-ICU 62308; settings: P. aeruginosa CAN-ICU 62308; Zhanel et al., 2008; cited from earlier work
[3] = tested on: S. epidermidis ATCC 14990; assay: MIC, broth macrodilution (CLSI); format: cell-based, Staphylococcus epidermidis; settings: S. epidermidis ATCC14990
Experimental: (§1) All experiments were performed in duplicate.
(§2) Bacterial isolates studied included both reference strains obtained from the American Type Culture Collection (ATCC) as well as clinical strains obtained from the CAN-ICU study which was a national surveillance study assessing the prevalence of antimicrobial resistant pathogens in Canadian intensive care units (Zhanel et al., 2008). Isolates were kept frozen in skim milk at −80° C. until minimum inhibitory concentration (MIC) testing was carried out. Following two subcultures from frozen stock, the in vitro activities of peptides were determined by macrobroth dilution in accordance with the Clinical and Laboratory Standards Institute (CLSI) 2006 guidelines (Zhanel et al., 2008). Stock solutions of peptides were prepared and dilutions made as described by CLSI. Test tubes contained doubling antimicrobial dilutions of cation adjusted Mueller-Hinton broth and inoculated to achieve a final concentration of approximately 5×10^5 cfu/ml then incubated in ambient air for 24 hours prior to reading. Colony counts were performed periodically to confirm inocula. Quality control was regularly performed using ATCC QC organisms.

MRSE CAN-ICU 61589 = assay: MIC, broth macrodilution (CLSI); format: cell-based, methicillin-resistant Staphylococcus epidermidis
Experimental: as §1, §2

MRSA ATCC 33592 = assay: MIC, broth macrodilution (CLSI); format: cell-based, methicillin-resistant Staphylococcus aureus; settings: MRSA ATCC33592
Experimental: as §1, §2

[4] = tested on: E. coli (gentamicin-resistant) CAN-ICU 61714; settings: E. coli CAN-ICU 61714; Zhanel et al., 2008; cited from earlier work
S. pneumoniae ATCC 49619 = assay: MIC, broth macrodilution (CLSI), broth with 5% laked horse blood; format: cell-based, Streptococcus pneumoniae; settings: S. pneumoniae ATCC49619
Experimental: as §1, §2

[5] = tested on: E. coli (gentamicin-resistant) CAN-ICU 61714; assay: MIC, broth macrodilution (CLSI); format: cell-based; settings: E. coli CAN-ICU 61714
Experimental: as §1, §2

[6] = tested on: E. coli (amikacin MIC 32 mg/L) CAN-ICU 63074; assay: MIC, broth macrodilution (CLSI); format: cell-based; settings: E. coli CAN-ICU 63074
Experimental: as §1, §2

P. aeruginosa ATCC 27853 = assay: MIC, broth macrodilution (CLSI); format: cell-based; settings: P. aeruginosa ATCC27853
Experimental: as §1, §2

[7] = tested on: P. aeruginosa (gentamicin-resistant) CAN-ICU 62308; assay: MIC, broth macrodilution (CLSI); format: cell-based; settings: P. aeruginosa CAN-ICU 62308
Experimental: as §1, §2

E. coli ATCC 25922 = assay: MIC, broth macrodilution (CLSI); format: cell-based; settings: E. coli ATCC25922
Experimental: as §1, §2

S. aureus ATCC 29213 = assay: MIC, broth macrodilution (CLSI); format: cell-based, Staphylococcus aureus; settings: S. aureus ATCC29213
Experimental: as §1, §2

[8] = tested on: sheep red blood cell (erythrocytes); assay: Hemolytic assay (in vitro toxicity); settings: 100 mg/L; sheep erythrocytes; percent hemolysis
Experimental: Antibacterial activity against Gram-positive and Gram-negative microorganisms was tested via broth macrodilution tests using CLSI methodology (Zhanel et al., 2008). Stock solutions of cationic lipids in water were brought to a concentration of 512 mg/L. Organisms were subcultured and isolated on blood agar, suspended in 3 mL of Mueller-Hinton broth at the turbidity of a […], and diluted to approximately 10^5 cfu/mL before introduction into tubes containing serially diluted lipopeptide antibiotic in Mueller-Hinton broth. Activity testing against S. pneumoniae used broth supplemented with laked horse blood to give 5% horse blood in experimental tubes. Turbidity of lipopeptide solution in broth required creation of control tubes lacking organisms serving as turbidity controls. All tubes were incubated overnight for 16-20 h at 37° C. […] All experiments were performed in duplicate. In-vitro toxicity was determined using a sheep red blood cell hemolytic assay as previously described (Dathe et al., 1996).
In vitro toxicity was determined using a sheep red blood cell (erythrocytes) hemolytic assay (Dathe et al., 1996). […] Erythrocytes were washed and resuspended in Tris buffered saline. The cell suspension was combined with varying concentrations (low to very high) of test and control antimicrobials (e.g., aminoglycosides and APTCs). The samples were centrifuged and the absorbance of the supernatants measured at 540 nm. Tris buffered saline and Triton X were used as negative and positive controls, respectively. The toxicity was assessed by percent hemolysis.

[9] = tested on: methicillin-resistant S. aureus (MRSA); settings: Bera et al., 2008; cited from earlier work

## NCC[C@H](O)C(=O)N[C@@H]1C[C@H](N)[C@@H](O[C@H]2O[C@H](CN)[C@@H](O)[C@H](O)[C@H]2O)[C@H](O)[C@H]1O[C@H]1O[C@H](CO)[C@@H](O)[C@H](N)[C@H]1O [amikacin]
[1]
  MIC (strain description): 32 µg/mL (≈ 54.6 µM)

## Gentamicin [reference compound]
[2]
  MIC (strain description): > 32 µg/mL
[3]
  MIC: 0.25 µg/mL
MRSE CAN-ICU 61589
  MIC: 32 µg/mL
MRSA ATCC 33592
  MIC: 2 µg/mL
[4]
  MIC (strain description): > 32 µg/mL
S. pneumoniae ATCC 49619
  MIC: 4 µg/mL
[5]
  MIC: 128 µg/mL
[6]
  MIC: 8 µg/mL
P. aeruginosa ATCC 27853
  MIC: 8 µg/mL
[7]
  MIC: 128 µg/mL
E. coli ATCC 25922
  MIC: 1 µg/mL
S. aureus ATCC 29213
  MIC: 1 µg/mL

## NC[C@@H]1O[C@H](O[C@H]2[C@@H](O)[C@H](O[C@@H]3[C@@H](O)[C@H](N)C[C@H](N)[C@H]3O[C@H]3O[C@H](CN)[C@@H](O)[C@H](O)[C@H]3N)O[C@@H]2CO)[C@H](N)[C@@H](O)[C@@H]1O [Neomycin B, reference compound]
[3]
  MIC: 0.25 µg/mL (≈ 0.407 µM)
MRSE CAN-ICU 61589
  MIC: 0.5 µg/mL (≈ 0.813 µM)
[8]
  hemolytic activity at 100 mg/L: <0.3%
[9]
  MIC: 256 µg/mL (≈ 416 µM)
MRSA ATCC 33592
  MIC: 256 µg/mL (≈ 416 µM)
S. pneumoniae ATCC 49619
  MIC: 32 µg/mL (≈ 52.1 µM)
[5]
  MIC: 8 µg/mL (≈ 13 µM)
P. aeruginosa ATCC 27853
  MIC: 512 µg/mL (≈ 833 µM)
[7]
  MIC: 512 µg/mL (≈ 833 µM)
E. coli ATCC 25922
  MIC: 4 µg/mL (≈ 6.51 µM)
S. aureus ATCC 29213
  MIC: 1 µg/mL (≈ 1.63 µM)
